The results in this text go back to ChEMBL document CHEMBL4325931, “Modification of the Thioglycosyl-Naphthalimides as Potent and Selective Human O-GlcNAcase Inhibitors” (ACS Med Chem Lett, 2018).

In assay [1] the target is T1, Protein O-GlcNAcase (Homo sapiens) (UniProt O60502).
T1 sequence (whole entry): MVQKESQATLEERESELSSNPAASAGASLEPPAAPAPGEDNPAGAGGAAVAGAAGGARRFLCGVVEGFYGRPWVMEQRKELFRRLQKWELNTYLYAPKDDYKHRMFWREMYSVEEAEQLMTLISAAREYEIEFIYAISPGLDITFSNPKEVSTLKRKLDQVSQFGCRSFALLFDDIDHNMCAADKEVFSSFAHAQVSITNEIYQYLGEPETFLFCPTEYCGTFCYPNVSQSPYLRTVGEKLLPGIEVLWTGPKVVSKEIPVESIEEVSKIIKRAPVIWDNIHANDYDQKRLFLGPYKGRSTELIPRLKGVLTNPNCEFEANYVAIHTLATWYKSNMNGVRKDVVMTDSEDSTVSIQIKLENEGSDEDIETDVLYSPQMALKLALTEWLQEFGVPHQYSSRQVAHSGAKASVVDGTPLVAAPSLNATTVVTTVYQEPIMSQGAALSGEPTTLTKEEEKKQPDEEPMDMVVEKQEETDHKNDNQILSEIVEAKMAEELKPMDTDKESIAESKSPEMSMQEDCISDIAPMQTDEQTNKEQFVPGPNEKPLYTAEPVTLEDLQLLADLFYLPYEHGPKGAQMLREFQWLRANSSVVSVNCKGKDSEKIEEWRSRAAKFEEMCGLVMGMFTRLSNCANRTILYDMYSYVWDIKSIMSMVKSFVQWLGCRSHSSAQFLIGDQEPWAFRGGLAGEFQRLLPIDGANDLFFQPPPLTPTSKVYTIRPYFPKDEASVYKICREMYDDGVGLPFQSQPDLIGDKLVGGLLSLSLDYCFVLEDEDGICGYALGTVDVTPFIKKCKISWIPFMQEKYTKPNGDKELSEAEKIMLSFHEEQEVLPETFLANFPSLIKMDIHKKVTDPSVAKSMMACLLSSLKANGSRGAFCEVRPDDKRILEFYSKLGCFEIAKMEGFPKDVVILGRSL
Briefly: Inhibition of recombinant human OGA expressed in Escherichia coli BL21 (DE3) at 20 uM using 4-Mu-GlcNAc as substrate preincubated for 10 mins followed by substrate addition and measured after 30 mins by fluorescence assay relative to control.

Assay [2] addresses T2, Beta-hexosaminidase subunit beta (Homo sapiens) (UniProt P07686).
T2 sequence (whole entry): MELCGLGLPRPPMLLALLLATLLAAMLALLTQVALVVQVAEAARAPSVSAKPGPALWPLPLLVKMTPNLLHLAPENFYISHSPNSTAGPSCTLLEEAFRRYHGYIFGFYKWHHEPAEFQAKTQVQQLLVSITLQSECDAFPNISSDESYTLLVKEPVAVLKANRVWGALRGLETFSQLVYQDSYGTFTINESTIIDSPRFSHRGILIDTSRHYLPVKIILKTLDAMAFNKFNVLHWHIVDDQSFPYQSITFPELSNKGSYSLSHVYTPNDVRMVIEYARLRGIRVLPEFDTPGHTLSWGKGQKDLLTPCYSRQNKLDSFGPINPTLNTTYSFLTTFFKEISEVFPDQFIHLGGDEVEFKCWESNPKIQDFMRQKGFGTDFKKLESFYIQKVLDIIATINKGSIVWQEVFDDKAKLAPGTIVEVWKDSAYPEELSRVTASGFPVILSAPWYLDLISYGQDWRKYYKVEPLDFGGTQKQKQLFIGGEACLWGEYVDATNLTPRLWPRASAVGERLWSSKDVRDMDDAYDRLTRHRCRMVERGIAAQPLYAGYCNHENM
Briefly: Inhibition of recombinant human His6-tagged HexB expressed in Pichia pastoris at 20 uM using 4-Mu-GlcNAc as substrate preincubated for 10 mins followed by substrate addition and measured after 30 mins by fluorescence assay relative to control.

Assay [3] addresses T3, Protein O-GlcNAcase (Homo sapiens, UniProt O60502).
T3 sequence (O60502 whole entry): T1 sequence (whole entry)
In words: Inhibition of recombinant human OGA expressed in Escherichia coli BL21 (DE3) using varying levels of 4-Mu-GlcNAc as substrate preincubated for 10 mins followed by substrate addition and measured after 30 mins by dixon plot analysis.

The target of assay [4] is T4, Beta-hexosaminidase subunit beta (Homo sapiens, UniProt P07686).
T4 sequence (P07686 whole entry): T2 sequence (whole entry)
Briefly: Inhibition of recombinant human His6-tagged HexB expressed in Pichia pastoris using varying levels of 4-Mu-GlcNAc as substrate preincubated for 10 mins followed by substrate addition and measured after 30 mins by dixon plot analysis.

The species named for assay [5] is Homo sapiens. In words: Selectivity ratio of Ki for recombinant human His6-tagged HexB expressed in Pichia pastoris to Ki for recombinant human OGA expressed in Escherichia coli BL21 (DE3).
Assay [6] has as its target T2, Beta-hexosaminidase subunit beta (Homo sapiens). Briefly: Inhibition of recombinant human His6-tagged HexB expressed in Pichia pastoris at 100 uM using varying levels of 4-Mu-GlcNAc as substrate preincubated for 10 mins followed by substrate addition and measured after 30 mins by dixon plot analysis relative to control.
Assay [7] is described as follows: Inhibition of Ostrinia furnacalis beta-N-acetylhexosaminidase using pNP-beta-GlcNAc as substrate by dixon plot analysis.
Assay [8] addresses Beta-hexosaminidase (Homo sapiens). In words: Inhibition of human beta-N-acetylhexosaminidase using pNP-beta-GlcNAc as substrate by dixon plot analysis.

In general, inhibition refers to how much of the control response was suppressed. For `CC(=O)N[C@@H]1[C@@H](O)[C@H](O)[C@@H](CO)O[C@H]1SCCCNCCCN1C(=O)c2cccc3c(N4CCCCC4)ccc(c23)C1=O`, the inhibition was found to be 49.1% in assay [1] and 0% in assay [2].
One may read the Ki as the dissociation constant of the complex between target and ligand, obtained from inhibition or displacement. For `COc1ccc2c3c(cccc13)C(=O)N(CCCNCCCS[C@@H]1O[C@H](CO)[C@@H](O)[C@H](O)[C@H]1NC(C)=O)C2=O`, the Ki in assay [3] came to 15900 nM; in assay [4] it was 24700 nM. Further, the figures for the inhibition in assay [1] and in assay [2] were 68% and 45.2%, respectively. Besides, the Ratio Ki in assay [5] amounted to 1.6.
In the same order, the values of `COc1ccc2c3c(cccc13)C(=O)N(CCCNCCS[C@@H]1O[C@H](CO)[C@@H](O)[C@H](O)[C@H]1NC(C)=O)C2=O` are 1600 nM, 22100 nM, 73.1%, 47.9% and 13.8.
For the compound `CC(=O)N[C@@H]1[C@@H](O)[C@H](O)[C@@H](CO)O[C@H]1SCCNCCCN1C(=O)c2cccc3c(N4CCCCC4)ccc(c23)C1=O`, the Ki in assay [3] was found to be 600 nM. Moreover, the inhibition in assay [6] was less than 50%; in assay [1] it was 87.6%; in assay [2], 0%. In addition, the Ratio Ki in assay [5] is greater than 167.
Turning to `Cc1nnc(CNCCN2C(=O)c3cccc4cccc(c34)C2=O)s1`, the Ki worked out at 4300 nM in assay [7] and 2200 nM in assay [8].
As to `Cc1nnc(CNCCN2C(=O)c3cccc4c(N(C)C)ccc(c34)C2=O)s1`, the Ki in assay [7] is 300 nM; in assay [8], greater than 100000 nM.
Take `CC(=O)N[C@@H]1[C@@H](O)[C@H](O)[C@@H](CO)O[C@H]1SCCNCCCN1C(=O)c2cccc3c(Br)ccc(c23)C1=O`: the Ki in assay [3] came to 900 nM; in assay [4], 1800 nM. Also, the inhibition in assay [1] came out at 84.7%; in assay [2], 70.5%. For the same compound, the Ratio Ki in assay [5] is 2.
In the same order, the values of `CC(=O)N[C@@H]1[C@@H](O)[C@H](O)[C@@H](CO)O[C@H]1SCCCNCCN1C(=O)c2cccc3c(Br)ccc(c23)C1=O` are 3500 nM, 5100 nM, 75.7%, 60.6% and 1.5.
The like results for `CC(=O)N[C@@H]1[C@@H](O)[C@H](O)[C@@H](CO)O[C@H]1SCCNCCCN1C(=O)c2cccc3c(Cl)ccc(c23)C1=O` were, in that order, 800 nM, 1600 nM, 83.3%, 70.8% and 2.
For the compound `CC(=O)N[C@@H]1[C@@H](O)[C@H](O)[C@@H](CO)O[C@H]1SCCCNCCN1C(=O)c2cccc3c(N(C)C)ccc(c23)C1=O`, the inhibition was 26.6% in assay [1] and 0% in assay [2].
In the same order, the values of `CC(=O)N[C@@H]1[C@@H](O)[C@H](O)[C@@H](CO)O[C@H]1SCCCNCCCN1C(=O)c2cccc3c([N+](=O)[O-])ccc(c23)C1=O` are 20% and 0%.
With `CC(=O)N[C@@H]1[C@@H](O)[C@H](O)[C@@H](CO)O[C@H]1SCCNCCN1C(=O)c2cccc3c(Br)ccc(c23)C1=O`, the Ki in assay [3] worked out at 1200 nM; in assay [4], 2600 nM. For the same compound, the inhibition in assay [1] turned out to be 73.2%; in assay [2], 73.3%. Also, the Ratio Ki in assay [5] was 2.2.
For `CC(=O)N[C@@H]1[C@@H](O)[C@H](O)[C@@H](CO)O[C@H]1SCCNCCN1C(=O)c2cccc3c(N4CCCCC4)ccc(c23)C1=O`, the inhibition was found to be 36.7% in assay [1] and 0% in assay [2].
For `COc1ccc2c3c(cccc13)C(=O)N(CCNCCCS[C@@H]1O[C@H](CO)[C@@H](O)[C@H](O)[C@H]1NC(C)=O)C2=O`, the inhibition in assay [1] came to 34.3%; in assay [2], 39%.
Take `CC(=O)N[C@@H]1[C@@H](O)[C@H](O)[C@@H](CO)O[C@H]1SCCCNCCCN1C(=O)c2cccc3c(Cl)ccc(c23)C1=O`: the Ki in assay [3] worked out at 2100 nM; in assay [4] it was 1800 nM. Besides, the inhibition in assay [1] was determined as 68.9%; in assay [2], 74.3%. Besides, the Ratio Ki in assay [5] was determined as 0.9.
Consider `CC(=O)N[C@@H]1[C@@H](O)[C@H](O)[C@@H](CO)O[C@H]1SCCCNCCN1C(=O)c2cccc3c(Cl)ccc(c23)C1=O`, for which the Ki in assay [3] was 700 nM; in assay [4], 1600 nM. The inhibition in assay [1] worked out at 83.6%; in assay [2], 75.2%. In addition, the Ratio Ki in assay [5] turned out to be 2.3.
For the compound `CC(=O)N[C@@H]1[C@@H](O)[C@H](O)[C@@H](CO)O[C@H]1SCCNCCCN1C(=O)c2cccc3c([N+](=O)[O-])ccc(c23)C1=O`, the Ki in assay [3] was 8300 nM. The results for the inhibition in assay [6], in assay [1] and in assay [2] were less than 50%, 55% and 8%, respectively. Moreover, in assay [5], the Ratio Ki was greater than 12.
In the case of `CC(=O)N[C@@H]1[C@@H](O)[C@H](O)[C@@H](CO)O[C@H]1SCCCNCCCN1C(=O)c2cccc3c(N(C)C)ccc(c23)C1=O`, the inhibition in assay [1] was found to be 28.2%; in assay [2], 0%.
In the case of `CC(=O)N[C@@H]1[C@@H](O)[C@H](O)[C@@H](CO)O[C@H]1SCCCNCCCN1C(=O)c2cccc3c(Br)ccc(c23)C1=O`, the Ki came to 2200 nM in assay [3] and 4400 nM in assay [4]. The inhibition in assay [1] was 59.2%; in assay [2], 65%. In assay [5], the Ratio Ki was 2.
On to `COc1ccc2c3c(cccc13)C(=O)N(CCNCCS[C@@H]1O[C@H](CO)[C@@H](O)[C@H](O)[C@H]1NC(C)=O)C2=O`, for which the Ki in assay [3] was found to be 6700 nM; in assay [4] it was 56200 nM. In addition, the inhibition in assay [1] was found to be 56.4%; in assay [2] it was 22.5%. The Ratio Ki in assay [5] was 8.4.
For the compound `CC(=O)N[C@@H]1[C@@H](O)[C@H](O)[C@@H](CO)O[C@H]1SCCNCCN1C(=O)c2cccc3c(Cl)ccc(c23)C1=O`, the Ki in assay [3] was 2000 nM; in assay [4], 1200 nM. The inhibition came to 66.1% in assay [1] and 73.8% in assay [2]. The Ratio Ki in assay [5] amounted to 0.6.
For `CC(=O)N[C@@H]1[C@@H](O)[C@H](O)[C@@H](CO)O[C@H]1SCCNCCN1C(=O)c2cccc3c([N+](=O)[O-])ccc(c23)C1=O`, the inhibition amounted to 25.1% in assay [1] and 13.8% in assay [2].
In the case of `CC(=O)N[C@@H]1[C@@H](O)[C@H](O)[C@@H](CO)O[C@H]1SCCNCCCN1C(=O)c2cccc3c(N(C)C)ccc(c23)C1=O`, the inhibition in assay [1] was 40.9%; in assay [2], 0%.
Consider `CC(=O)N[C@@H]1[C@@H](O)[C@H](O)[C@@H](CO)O[C@H]1SCCCNCCN1C(=O)c2cccc3c(N4CCCCC4)ccc(c23)C1=O`, for which the Ki in assay [3] is 3200 nM. In addition, the figures for the inhibition in assay [6], in assay [1] and in assay [2] were less than 50%, 67.5% and 0%, respectively. Further, in assay [5], the Ratio Ki is greater than 31.2.
With `CC(=O)N[C@@H]1[C@@H](O)[C@H](O)[C@@H](CO)O[C@H]1SCCCNCCN1C(=O)c2cccc3c([N+](=O)[O-])ccc(c23)C1=O`, the inhibition in assay [1] worked out at 25.6%; in assay [2] it was 0%.
